Data published in patent publication US20210186947A1, “TOMM6-INTERACTING EXTRACTS AND COMPOUNDS FOR USE IN THE TREATMENT AND PROPHYLAXIS OF NERVOUS SYSTEM DISEASES, ATHEROSCLEROSIS, HEPATITIS B INFECTION AND HUMAN PAPILLOMA VIRUS (HPV) INFECTION” (ETH ZURICH, priority 2018, published 2021).

How the values were obtained:
[1] = molecular target: T1, Tomm6 (Mitochondrial import receptor subunit TOMM6 homolog) (Mus musculus, UniProt Q9CQN3); assay: Identification of Compound-1-interacting hippocampal proteins by co-migration in SDS-PAGE and nano-LC-ESI-MS/MS; type: binding, Tg2576 mice; conditions: solubilisate of hippocampal proteins supplemented with 10 microM Compound-1
T1 construct: hippocampi were isolated from 5-10 aged Tg2576 mice, pulverized under liquid nitrogen and solubilized; from tissue; host or cells: hippocampus of Tg2576 mice
T1 sequence (Q9CQN3 whole entry): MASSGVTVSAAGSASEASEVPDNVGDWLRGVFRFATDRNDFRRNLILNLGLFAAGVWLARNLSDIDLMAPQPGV
Method: To isolate Compound-1-interacting hippocampal proteins, hippocampi were isolated from 5-10 aged Tg2576 mice, pulverized under liquid nitrogen and solubilized for 30 min at 4° C. in solubilization buffer (1% sodium deoxycholate, 0.05% SDS, 0.05% Tween 20 in PBS, pH 7.4, supplemented with protease inhibitors). Insoluble material was removed by centrifugation. The supernatant was diluted 1:5 in PBS (supplemented with protease inhibitors). To this solubilisate, Compound-1 was added at a concentration of 10 μM. Buffer exchange into 20 mM Tris pH 7.4 was performed by centrifugation over Amicon Ultra Centrifugal Filter Units (MWCO 3 kDa; EMD Millipore Merck KGaA, Darmstadt, Germany). The concentrated proteins were dissolved in Laemmli sample buffer (Bio-Rad GmbH, Munchen, Germany) supplemented with mercaptoethanol (355 mM) and subjected to 8% SDS-PAGE under reducing conditions. Compound-1-interacting proteins were identified by co-migration, protein bands were cut and subjected to nano-LC-ES-MS/MS (performed by Proteome Factory AG, Berlin, Germany). Proteins were identified using MS/MS ion search of the Mascot search engine (Matrix Science, London, England) and nr protein database (National Center for Biotechnology Information, Bethesda, MD). […]

[2] = Measurement of serum level in dogs by HPLC; type: in vivo, German shepherd dogs; conditions: for peak serum concentration: t=1 h
Method: Serum concentrations of alizarin were determined with serum isolated from the blood of male and female German shepherd dogs (age: 8-9 months) taken at different time points (0.5 h, 1 h, 2 h, 4 h, 6 h, 8 h, 24 h) after oral intake of the indicated doses for 4 weeks. In addition, serum concentrations of alizarin (Compound-1) were determined in male and female Sprague Dawley rats (body weight: 200-250 g) treated for 1 month and/or three months by oral gavage of alizarin at a once daily dose of 100 mg/kg, 50 mg/kg, 25 mg/kg and 12.5 mg/kg. Serum proteins were removed by acetonitrile precipitation, and alizarin was extracted by chloroform before separation on an HPLC-C18 column (Poroshell 120 EC-C18, 3.0×50 mm, Agilent) with an HPLC system (Agilent 1100 Series) and detection at OD245 nm. For quantitative determination of Compound-7 and Compound-10F in rat and dog serum, serum proteins were also removed by acetonitrile precipitation before HPLC analysis as detailed above and detection at OD254 nm.

HPV-induced warts = assay: Phase-1 placebo-controlled study of topical Compound-1 on flat warts; type: in vivo, human; conditions: once daily topical Compound-1-containing hydrogel (0.2%) for 3 weeks
Method: The study analyzed the treatment effect of topical administration of Compound-1 on warts. The study was performed according to the study protocol. Study design: The study was a phase-1, placebo-controlled study of Compound-1. The primary end-point was safety and tolerability. Secondary objectives were treatment effects on wart lesion size. The study included a cohort of 6 voluntary research participants (6 males; age 36-72 years; all Caucasians) with diagnosed flat warts. A total number of 94 lesions were treated with Compound-1. Vehicle-treated warts (n=88) of each participant served as placebo group. Study participants received once daily topical applications of a Compound-1-containing hydrogel (0.2%) or vehicle for 3 weeks. The study participants were under the medical supervision of Dr. Raafat Mahmood Fawzy (Clinical Director, Rabaa El Adaweya Medical Central Hospital, Cairo, Egypt). Clinical laboratory parameters of all research participants were within the normal range before, during the study and after completion of the study (observation period 4 weeks). […] The study protocol was conducted in accordance with the Declaration of Helsinki. All research participants provided written informed consent before participation. Research participants had the possibility to withdraw at any time from the study. But all participants wanted to complete the study.
A total number of 94 lesions were treated with Compound-1. Vehicle-treated warts (n=88) served as placebo. […] The treatment effect of Compound-1 against HPV infection is directly related to its activity as TOMM6 inducer/activator, which is a sufficient cause to inhibit (amyloidogenic) protein aggregation in cells and in vivo. In this context, HPV infection is another disease with causal involvement of an aggregation-prone amyloidogenic protein. Without wishing to be bound by theory, it is believed that Infections with human papillomaviruses (HPV) rely on the highly amyloidogenic protein E1AE4, also known as the HPV E4 protein (McIntosh et al., 82, 8196-8203 (2008)). The HPV E4 protein, which uses the amyloid-fold as does amyloid-beta, is the most abundantly expressed viral transcript/protein in HPV-infected epithelia, and mediates HPV-mediated disruption of cellular integrity, HPV release from infected epithelial cells and virus transmission (McIntosh et al., 82, 8196-8203 (2008); Doorbar, Virology 445, 80-98 (2013)). In HPV-induced warts, the aggregation-prone HPV E4 protein can constitute between 20% and 30% of the total wart protein (Doorbar et al., EMBO J. 5, 355-362 (1986)). The expression of E1AE4 relies on self-aggregation of the HPV E4 protein (Bryan et al., Virology 241, 49-60 (1998)).

O=C1c2ccccc2C(=O)c2c1ccc(O)c2O [Compound-1, 1,2-dihydroxyanthraquinone]
interaction with Tomm6 (co-migration) [1]: major Compound-1-interacting protein
oral bioavailability / serum concentrations after oral intake [2]: achieves therapeutic serum concentrations
time of second serum peak ([2]; after oral intake): 4 h
peak serum concentration ([2]; repeated once daily oral dose of 2 mg/kg): 0.146 ± 0.017 µg/mL
peak serum concentration ([2]; repeated once daily oral dose of 6 mg/kg): 0.467 ± 0.022 µg/mL
time of peak serum concentration ([2]; repeated once daily oral intake of 2 mg/kg/day and 6 mg/kg/day): 1 h
response of treated warts (HPV-induced warts): showed a response
adverse effects (safety and tolerability) (HPV-induced warts; 6 participants): no adverse effects
lesions with complete response (100% decrease of the lesion area) (HPV-induced warts; 94 lesions): more than 86%
lesions with partial response (>50%-<100% decrease of lesion area) (HPV-induced warts; 94 lesions): 13.8%
